Experimental data published in publication PMC4276521 (Biochemical pharmacology, 2014).
“And” between values parts separate entries of the source, which are not always exact repeats. Equal entries are not always repeated. Structures can show the parent of a compound that is named as a salt. Where two headings read alike, the source gives them in different places.

Experiments:
[1] = target: T1, DRD2 (Homo sapiens, UniProt P14416)
[2] = target: T1, DRD2; remark: listed apart in the source
[3] = target: T1, DRD2; remark: listed apart in the source
[4] = target: T1, DRD2; settings: HEK-AC5/D2 cells; percentage of dopamine's response, standard error in brackets
[5] = target: T1, DRD2; assay: cell-based

T1 sequence (P14416 whole entry, species assumed): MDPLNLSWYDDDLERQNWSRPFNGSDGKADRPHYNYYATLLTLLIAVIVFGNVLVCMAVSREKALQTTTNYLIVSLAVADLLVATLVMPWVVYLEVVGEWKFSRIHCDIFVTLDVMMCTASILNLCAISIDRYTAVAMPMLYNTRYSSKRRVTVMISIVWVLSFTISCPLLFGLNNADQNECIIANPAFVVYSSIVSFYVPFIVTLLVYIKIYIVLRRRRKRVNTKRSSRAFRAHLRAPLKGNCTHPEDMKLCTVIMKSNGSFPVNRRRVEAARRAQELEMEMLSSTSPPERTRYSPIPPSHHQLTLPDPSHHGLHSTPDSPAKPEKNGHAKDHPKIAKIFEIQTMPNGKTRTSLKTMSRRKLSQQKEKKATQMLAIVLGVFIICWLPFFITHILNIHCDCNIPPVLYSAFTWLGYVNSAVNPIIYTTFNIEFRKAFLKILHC

Structure (SMILES) | Gβγ activation Max [1] | DMR (AUC) Max [2] | Gαi/o activation Max [3] | Sensitization Max [4] | Gβγ activation Max ([1]; HEK-AC2/D2 cells, percentage of dopamine's response, standard error in brackets) | DMR (AUC) Max ([2]; HEK-D2 cells, percentage of dopamine's response, standard error in brackets) | Gαi/o activation Max ([3]; HEK-AC5/D2 cells, percentage of dopamine's response, standard error in brackets) | EC50 [5] [nM]
CCCN[C@H]1CCc2nc(N)sc2C1 [Pramipexole, pramipexole dihydrochloride] | 98% and 98 (±5) % | 98 (±2) % | 87 (±4) % |  |  |  |  | 
CCCN(CCC)CCc1cccc2c1CC(=O)N2 [Ropinirole, ropinirole hydrochloride] |  |  |  | 126 (±3) % | 70 (±4) % | 100 (±2) % | 81 (±6) % | 
CCCN(CCc1cccs1)[C@H]1CCc2c(O)cccc2C1 [Rotigotine, rotigotine hydrochloride] | 79% and 79 (±4) % |  | 88 (±4) % |  |  |  |  | 0.05
